Experiments:
ML1a receptor = molecular target: T1, ML1a receptor (Homo sapiens, UniProt P48039); assay: Melatonergic receptor binding activity, 2-[125I]-iodomelatonin, ML1a; details: membrane homogenates of NIH-3T3 cells, 37° C. for 1 hour
T1 construct: expressed in transfected cells; pcDNA3)
Procedure: (§1) Melatonergic Receptor Binding Activity
(§2) (a) TME=50 mM Tris buffer containing 12.5 mM MgCl2, and 2 mM EDTA, pH 7.4 at 37° C., with concentrated HCl.
(§3) (b) Wash buffer: 20 mM Tris base containing 2 mM MgCl2, pH 7.4 at room temperature.
(§4) (c) 10^−4 M melatonin (10^−5 M final concentration).
(§5) (d) 2-[^125I]-iodomelatonin, […] final concentration.
2. Membrane Homogenates: The melatonin ML1α receptor cDNA was subcloned into pcDNA3 and introduced into NIH-3T3 cells using Lipofectamine. Transformed NIH-3T3 cells resistant to geneticin (G-418) were isolated, and single colonies expressing high levels of 2-[^125I]-iodomelatonin binding were isolated. Cells are maintained in DMEM supplemented with 10% calf serum and G-418 (0.5 g/liter). Cells are grown to confluency in T-175 flasks, scraped using Hank's balanced salt solution, and frozen at −80° C. For preparing membrane homogenates, pellets are thawed on ice, and re-suspended in TME buffer in the presence of 10 μg/ml aprotinin and leupeptin, and 100 μM phenylmethylsulfonylfluoride. The cells were then homogenized using a dounce homogenizer, and centrifuged. The resulting pellet was re-suspended with dounce homogenizer in TME (supplemented with the above protease inhibitors) and frozen. On the day of assay, a small aliquot was thawed on ice and re-suspended in the ice cold TME (1:50-1:100 v/v) and held on ice until assayed.
(§6) 3. Incubation: 37° C. for 1 hour. Reaction is terminated by filtration. Filters were washed 3 times.
(§7) The compounds of the present invention have affinity for receptors of the endogenous pineal hormone, melatonin, as determined in a receptor binding assays described above in Tables I to V for the ML1a and ML1b (human) receptors. Melatonin is involved in the regulation of a variety of biological rhythms and exerts its biological effects via interaction with specific receptors. There is evidence that administration of melatonin agonists are of clinical utility in the treatment of various conditions regulated by melatonin activity. Such conditions include depression, jet-lag, work-shift syndrome, sleep disorders, glaucoma, some disorders associated with reproduction, cancer benign prostatic hyperplasia, immune disorders and neuroendocrine disorders.

ML1b receptor = molecular target: T2, ML1b receptor (Homo sapiens, UniProt P49286); assay: Melatonergic receptor binding activity, 2-[125I]-iodomelatonin, ML1b; details: 37° C. for 1 hour
T2 construct: expressed in transfected cells
T2 sequence (P49286 1-362): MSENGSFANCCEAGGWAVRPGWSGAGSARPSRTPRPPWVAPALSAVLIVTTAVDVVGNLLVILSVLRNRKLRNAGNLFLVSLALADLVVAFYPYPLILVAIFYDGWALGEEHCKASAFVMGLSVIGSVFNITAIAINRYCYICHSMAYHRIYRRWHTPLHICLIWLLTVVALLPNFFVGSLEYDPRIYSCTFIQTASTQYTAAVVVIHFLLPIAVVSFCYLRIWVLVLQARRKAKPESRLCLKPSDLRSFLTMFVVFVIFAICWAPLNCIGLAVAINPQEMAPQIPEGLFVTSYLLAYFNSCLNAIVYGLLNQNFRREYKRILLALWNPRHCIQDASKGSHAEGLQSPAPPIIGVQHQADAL
Procedure: as §1, §2, §3, §4, §5, §6, §7

T1 sequence (P48039 whole entry): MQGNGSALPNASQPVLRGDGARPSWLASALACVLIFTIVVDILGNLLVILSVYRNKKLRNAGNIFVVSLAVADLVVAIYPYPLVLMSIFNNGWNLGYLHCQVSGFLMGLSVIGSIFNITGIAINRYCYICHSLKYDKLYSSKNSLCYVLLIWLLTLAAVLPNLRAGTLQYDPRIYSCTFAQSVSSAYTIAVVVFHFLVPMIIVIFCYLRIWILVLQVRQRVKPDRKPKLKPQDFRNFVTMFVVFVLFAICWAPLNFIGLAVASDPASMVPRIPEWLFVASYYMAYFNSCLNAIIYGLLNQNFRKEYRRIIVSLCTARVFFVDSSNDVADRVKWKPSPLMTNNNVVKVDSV

Compound | IC50 (ML1a receptor; Table III) [nM] | IC50 (ML1b receptor; Table III) [nM] | IC50 (ML1a receptor; Table IV) [nM] | IC50 (ML1b receptor; Table IV) [nM] | also measured
CC(=O)NCCCc1cccc2oc(CCCCc3ccccc3)cc12 [Example 9, N-[3-[2-(4-Phenylbutyl)benzofuran-4-yl]propyl]acetamide] |  |  |  |  | IC50 (ML1a receptor; Table II): 10 to 250 nM; IC50 (ML1b receptor; Table II): 10 to 250 nM
N-3-(2-(3-Phenylprop-1-yl)benzofuran-3-yl)prop-1-yl Butyramide [Example 21] | 10 to 250 | > 250 |  |  | 
CCNC(=O)NCCCc1cccc2oc(CCCCc3ccc(C(F)(F)F)cc3)cc12 [Example 14, N-[3-[2-[4-(4-Trifluoromethylphenyl)butyl]benzofuran-4-yl]propyl]-N′-ethyl Urea] | 10 to 250 | > 250 |  |  | 
N-{3-[3-Chloro-2-(4-phenylbutyl)benzo[b]furan-4-yl]-propyl}ethoxycarboxamide [Example 27] | > 250 | > 250 |  |  | 
CC(C)C(=O)NCCCc1cccc2oc(CCCCc3ccc(C(F)(F)F)cc3)cc12 [Example 18, N-[3-[2-[4-(4-Trifluoromethylphenyl)butyl]benzofuran-4-yl]propyl]-isobutyramide] | 10 to 250 | > 250 |  |  | 
CCNC(=O)NC[C@H]1C[C@@H]1c1cccc2oc(CCCCc3ccc(F)cc3)cc12 [Example 41, N-[((1R,2R)-2-{2-[4-(4-Fluorophenyl)butyl]benzo[b]furan-4-yl-}-cyclopropyl)methyl](ethylamino)carboxamide] |  |  | 10 to 250 | > 250 | 
N-3-(2-(2-Phenyleth-1-yl)benzofuran-3-yl)prop-1-yl Acetamide [Example 23] | 10 to 250 | 10 to 250 |  |  | 
CCCC(=O)NCCCc1cccc2c1C[C@H](CCCCc1ccccc1)O2 [Example 3, N-[3-[2-(4-Phenylbutyl)-2,3-dihydrobenzofuran-4-yl]propyl]butyramide] |  |  |  |  | IC50 (ML1a receptor; Table I): < 10 nM; IC50 (ML1b receptor; Table I): 10 to 250 nM
CCCC(=O)NC[C@H]1C[C@@H]1c1cccc2oc(CCCCc3ccccc3)cc12 (racemic) [Example 32, N-({(1R,2R)-2-[2-(4-Phenylbutyl)benzo[b]furan-4-yl]-cyclopropyl}methyl)butanamide] |  |  | 10 to 250 | 10 to 250 | 
CCCC(=O)NC[C@@H]1C[C@H]1c1cccc2c1C[C@@H](CCCCc1ccccc1)O2 [Example 44, N-({2-[(2R)-2-(4-Phenylbutyl)(2,3-dihydrobenzo[b]furan-4-yl)]-(1R,2R)cyclopropyl}methyl)butanamide] |  |  |  |  | IC50 (ML1a receptor; Table V): < 10 nM; IC50 (ML1b receptor; Table V): < 10 nM
N-3-(2-(3-Phenylprop-1-yl)benzofuran-3-yl)prop-1-yl Acetamide [Example 19] | < 10 | 10 to 250 |  |  | 
N-({2-[(2R)-5,7-Dichloro-2-(4-phenylbutyl)(2,3-dihydrobenzo[b]furan-4-yl)](1R,2R)cyclopropyl}methyl)butanamide [Example 49] |  |  |  |  | IC50 (ML1a receptor; Table V): > 250 nM; IC50 (ML1b receptor; Table V): 10 to 250 nM
CCCC(=O)NCCCc1cccc2oc(CCCCc3ccccc3)cc12 [Example 11, N-[3-[2-(4-Phenylbutyl)benzofuran-4-yl]propyl]butyramide] |  |  |  |  | IC50 (ML1a receptor; Table II): 10 to 250 nM; IC50 (ML1b receptor; Table II): 10 to 250 nM
CC(=O)NC[C@H]1C[C@@H]1c1cccc2oc(CCCCc3ccccc3)cc12 (single isomer, unassigned) [Example 29] |  |  | < 10 | 10 to 250 | 
N-3-(2-(2-Phenyleth-1-yl)benzofuran-3-yl)prop-1-yl Propanamide [Example 24] | 10 to 250 | 10 to 250 |  |  | 
CCNC(=O)NC[C@@H]1C[C@H]1c1cccc2oc(CCCCc3ccccc3)cc12 (stereo in doubt) [Example 35, N-({(1R,2R)-2-[2-(4-Phenylbutyl)benzo[b]furan-4-yl]-cyclopropyl}methyl)(ethylamino)carboxamide] |  |  | 10 to 250 | 10 to 250 | 
CCC(=O)NCCCc1cccc2c1C[C@H](CCCCc1ccccc1)O2 (stereo in doubt) [Example 2, N-[3-[2-(4-Phenylbutyl)-2,3-dihydrobenzofuran-4-yl]propyl]propionamide] |  |  |  |  | IC50 (ML1a receptor; Table I): < 10 nM; IC50 (ML1b receptor; Table I): 10 to 250 nM
O=C(NC[C@@H]1C[C@H]1c1cccc2oc(CCCCc3ccc(F)cc3)cc12)C1CC1 (stereo in doubt) [Example 40, N-[((1R,2R)-2-{2-[4-(4-Fluorophenyl)butyl]benzo[b]furan-4-yl}-cyclopropyl)methyl]cyclopropylcarboxamide] |  |  | 10 to 250 | 10 to 250 | 
CC(C)C(=O)NC[C@@H]1C[C@H]1c1cccc2c1C[C@@H](CCCCc1ccccc1)O2 [Example 45, N-({2-[(2R)-2-(4-Phenylbutyl)(2,3-dihydrobenzo[b]furan-4-yl)]-(1R,2R)cyclopropyl}methyl)-2-methylpropanamide] |  |  |  |  | IC50 (ML1a receptor; Table V): 10 to 250 nM; IC50 (ML1b receptor; Table V): 10 to 250 nM
CCC(=O)NC[C@H]1C[C@@H]1c1cccc2oc(CCCCc3ccccc3)cc12 (racemic) [Example 31, N-({(1R,2R)-2-[2-(4-Phenylbutyl)benzo[b]furan-4-yl]-cyclopropyl}methyl)propanamide] |  |  | < 10 | < 10 | 
N-3-(2-(3-Phenylprop-1-yl)benzofuran-3-yl)prop-1-yl Cyclopropanecarboxamide [Example 22] | 10 to 250 | > 250 |  |  | 
CC(C)C(=O)NCCCc1cccc2oc(CCCCc3ccccc3)cc12 [Example 12, N-[3-[2-(4-Phenylbutyl)benzofuran-4-yl]propyl]-2-methyl Propionamide] |  |  |  |  | IC50 (ML1a receptor; Table II): < 10 nM; IC50 (ML1b receptor; Table II): 10 to 250 nM
CC(=O)NC[C@H]1C[C@@H]1c1cccc2oc(CCCCc3ccccc3)cc12 (single isomer, unassigned) [Example 30] |  |  | 10 to 250 | > 250 | 
CCC(=O)NCCCc1cccc2oc(CCCCc3ccccc3)cc12 [Example 10, N-[3-[2-(4-Phenylbutyl)benzofuran-4-yl]propyl]propionamide] |  |  |  |  | IC50 (ML1a receptor; Table II): < 10 nM; IC50 (ML1b receptor; Table II): 10 to 250 nM
CCC(=O)NC[C@@H]1C[C@H]1c1cccc2c1C[C@@H](CCCCc1ccccc1)O2 [Example 43, N-({2-[(2R)-2-(4-Phenylbutyl)(2,3-dihydrobenzo[b]furan-4-yl)]-(1R,2R)cyclopropyl}methyl)propanamide] |  |  |  |  | IC50 (ML1a receptor; Table V): < 10 nM; IC50 (ML1b receptor; Table V): < 10 nM
CCCC(=O)NCCCc1cccc2oc(CCCCc3ccc(C(F)(F)F)cc3)cc12 [Example 17, N-[3-[2-[4-(4-Trifluoromethylphenyl)butyl]benzofuran-4-yl]propyl]-butyramide] | 10 to 250 | 10 to 250 |  |  | 
CC(=O)NC[C@@H]1C[C@H]1c1cccc2oc(CCCCc3ccc(F)cc3)cc12 (stereo in doubt) [Example 36, N-[((1R,2R)-2-{2-[4-(4-Fluorophenyl)butyl]benzo[b]furan-4-yl}-cyclopropyl)methyl]acetamide] |  |  | < 10 | 10 to 250 | 
CC(C)C(=O)NCCCc1cccc2c1C[C@H](CCCCc1ccccc1)O2 (stereo in doubt) [Example 4, N-[3-[2-(4-Phenylbutyl)-2,3-dihydrobenzofuran-4-yl]propyl]-2-methylpropionamide] |  |  |  |  | IC50 (ML1a receptor; Table I): < 10 nM; IC50 (ML1b receptor; Table I): 10 to 250 nM
CCC(=O)NC[C@@H]1C[C@H]1c1cccc2oc(CCCCc3ccc(F)cc3)cc12 (stereo in doubt) [Example 37, N-[((1R,2R)-2-{2-[4-(4-Fluorophenyl)butyl]benzo[b]furan-4-yl}-cyclopropyl)methyl]propanamide] |  |  | < 10 | 10 to 250 | 

Reference: patent US6569894B1, “Arylalkylbenzofuran derivatives as melatonergic agents” (Bristol-Myers Squibb Company, priority 2001, dated 2003)
